Values of other authors in patent US20060088617A1, “Chocolate composition and method for benefiting the cardiovascular system” (priority 2004, published 2006).

Test system: blood vessel function
Conditions: after consumption of flavonoid-rich dark chocolate

For `Oc1cc(O)c2c(c1)O[C@H](c1ccc(O)c(O)c1)[C@H](O)C2` [epicatechin], the “absorption of epicatechin in the blood” value is listed as “absorbed at high levels in the blood”.
